# Several values for one entry are separate records, joined by “and”; a condition that tells them apart may be missing. Equal values may be shown once.
# Assays:
# [1] = molecular target: T1, Muscarinic acetylcholine receptor M2 (Sus scrofa, UniProt P06199)
# T1 sequence (P06199 whole entry): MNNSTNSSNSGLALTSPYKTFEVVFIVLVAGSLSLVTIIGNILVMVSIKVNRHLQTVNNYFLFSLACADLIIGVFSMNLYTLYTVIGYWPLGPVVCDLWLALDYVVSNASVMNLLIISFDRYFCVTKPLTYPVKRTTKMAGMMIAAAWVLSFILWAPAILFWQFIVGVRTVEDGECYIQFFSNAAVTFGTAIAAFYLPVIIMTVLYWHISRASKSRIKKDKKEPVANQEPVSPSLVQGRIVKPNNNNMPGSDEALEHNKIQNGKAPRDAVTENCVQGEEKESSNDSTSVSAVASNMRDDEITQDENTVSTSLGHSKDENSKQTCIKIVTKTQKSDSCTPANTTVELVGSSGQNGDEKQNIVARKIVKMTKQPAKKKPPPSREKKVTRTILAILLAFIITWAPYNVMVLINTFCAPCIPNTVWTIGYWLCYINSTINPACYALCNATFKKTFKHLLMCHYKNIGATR
# [2] = molecular target: T2, Muscarinic acetylcholine receptor M2 (Homo sapiens, UniProt P08172)
# T2 sequence (P08172 whole entry): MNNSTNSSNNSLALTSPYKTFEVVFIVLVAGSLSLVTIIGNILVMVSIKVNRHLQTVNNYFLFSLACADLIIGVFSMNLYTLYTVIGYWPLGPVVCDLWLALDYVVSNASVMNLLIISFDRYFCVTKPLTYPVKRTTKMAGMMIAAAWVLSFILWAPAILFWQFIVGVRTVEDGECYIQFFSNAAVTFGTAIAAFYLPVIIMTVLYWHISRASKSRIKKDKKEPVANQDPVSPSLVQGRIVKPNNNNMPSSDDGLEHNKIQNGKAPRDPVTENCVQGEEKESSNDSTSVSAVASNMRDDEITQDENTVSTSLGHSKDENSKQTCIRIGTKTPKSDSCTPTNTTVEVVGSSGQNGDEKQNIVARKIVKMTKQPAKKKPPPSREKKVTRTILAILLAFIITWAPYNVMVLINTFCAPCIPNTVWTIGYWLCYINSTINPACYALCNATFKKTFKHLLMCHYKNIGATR
# [3] = molecular target: T3, Muscarinic acetylcholine receptor M2 (Rattus norvegicus, UniProt P10980)
# T3 sequence (P10980 whole entry): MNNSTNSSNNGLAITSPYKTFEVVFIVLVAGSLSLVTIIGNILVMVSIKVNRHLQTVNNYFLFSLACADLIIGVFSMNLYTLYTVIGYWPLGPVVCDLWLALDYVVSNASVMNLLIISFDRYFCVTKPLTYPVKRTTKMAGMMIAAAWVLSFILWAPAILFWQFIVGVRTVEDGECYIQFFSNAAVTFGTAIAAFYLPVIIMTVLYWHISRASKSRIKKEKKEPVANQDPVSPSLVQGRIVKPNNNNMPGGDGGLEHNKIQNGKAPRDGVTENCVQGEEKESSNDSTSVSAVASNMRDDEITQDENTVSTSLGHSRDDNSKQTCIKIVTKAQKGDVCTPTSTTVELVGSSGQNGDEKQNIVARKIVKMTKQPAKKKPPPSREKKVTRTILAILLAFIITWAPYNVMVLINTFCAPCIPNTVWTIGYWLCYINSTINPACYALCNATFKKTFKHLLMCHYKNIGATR
SMILES,Ki [1],Ki [2],Ki [3]
"CN1CCN(CC(=O)N2c3ccccc3C(=O)Nc3cccnc32)CC1 [11-[(4-methylpiperazin-1-yl)acetyl]-5,11-dihydro-6H-pyrido[2,3-b][1,4]benzodiazepin-6-one]",0.0807 µM and 0.276 µM,,
"CCN(CC)CC1CCCCN1CC(=O)N1c2ccccc2C(=O)Nc2cccnc21 (centres undefined) [(AF-DX 116) 11-[2-(2-Diethylaminomethyl-piperidin-1-yl)-acetyl]-5,11-dihydro-benzo[e]pyrido[3,2-b][1,4]diazepin-6-one]",0.0288 µM and 0.0218 µM,0.0996 µM and 0.0174 µM,0.0311 µM and 0.0269 µM
